{"source": "patent US11530413B2", "about": "“Compositions and methods to treat cancer” (NOVARTIS AG, priority 2017, dated 2022)", "origin": "cited, not measured here", "key": {"CDK2": {"biological_target": "CDK2", "details": "read-out: Ki as CDK inhibitor"}, "CBFB [1]": {"biological_target": "T1, CBFB (Homo sapiens, UniProt Q13951)", "T1 sequence (Q13951 1-182)": "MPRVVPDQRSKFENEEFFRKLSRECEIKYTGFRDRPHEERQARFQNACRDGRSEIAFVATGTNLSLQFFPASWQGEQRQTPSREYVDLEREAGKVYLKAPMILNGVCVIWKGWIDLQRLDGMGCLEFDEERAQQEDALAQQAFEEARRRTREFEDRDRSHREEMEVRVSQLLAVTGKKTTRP", "details": "read-out: IC50 as CBFB inhibitor"}, "CDK": {"tested_on": "CDK", "details": "read-out: IC50 as multi-CDK inhibitor"}, "[2]": {"biological_target": "T2, CBFbeta association with Runx1 (Homo sapiens, UniProt Q13951)", "T2 sequence (Q13951 1-141 limits assumed)": "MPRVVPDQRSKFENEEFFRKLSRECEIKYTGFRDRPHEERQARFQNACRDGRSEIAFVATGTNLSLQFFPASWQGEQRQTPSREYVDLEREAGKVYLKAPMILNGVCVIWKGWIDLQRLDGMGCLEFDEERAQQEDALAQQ"}, "GATA3": {"tested_on": "GATA3", "details": "target of the IC50 not stated; named as GATA3 inhibitor; read-out: IC50 of the steroid"}, "MITF": {"biological_target": "T3, MITF (Homo sapiens, UniProt O75030)", "T3 sequence (O75030 1-526)": "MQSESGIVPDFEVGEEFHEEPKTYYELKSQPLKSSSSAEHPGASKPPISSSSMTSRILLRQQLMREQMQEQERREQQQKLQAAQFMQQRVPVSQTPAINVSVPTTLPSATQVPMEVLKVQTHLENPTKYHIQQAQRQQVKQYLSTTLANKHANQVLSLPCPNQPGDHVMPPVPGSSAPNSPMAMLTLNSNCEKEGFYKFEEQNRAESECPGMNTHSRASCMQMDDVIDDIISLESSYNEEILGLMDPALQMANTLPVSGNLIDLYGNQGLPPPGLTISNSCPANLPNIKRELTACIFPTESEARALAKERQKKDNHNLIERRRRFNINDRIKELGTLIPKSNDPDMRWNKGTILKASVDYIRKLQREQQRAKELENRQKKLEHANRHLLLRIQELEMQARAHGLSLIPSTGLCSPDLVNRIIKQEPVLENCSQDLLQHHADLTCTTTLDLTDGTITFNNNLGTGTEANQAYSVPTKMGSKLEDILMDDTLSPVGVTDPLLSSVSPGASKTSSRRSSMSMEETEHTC", "details": "read-out: IC50 as MITF inhibitor"}, "CBFB [3]": {"biological_target": "T1, CBFB", "details": "read-out: IC50 as CBFB inhibitor", "remark": "listed apart in the source"}, "FLI1": {"tested_on": "FLI1", "details": "read-out: IC50 as FLI1 inhibitor"}}, "note": "Read-outs that look alike come from different tables or passages of the source."}
{"smiles": "CCNCc1cncc(-c2cccc3[nH]nc(-c4nc5c(F)cc(F)cc5[nH]4)c23)c1C", "note": "[AG-024322, N-((5-(3-(4,6-difluoro-1H-benzo[d]imidazol-2-yl)-1H-indazol-4-yl)-4-methylpyridin-3-yl)methyl)ethanamine]", "values": [{"measurement": "Ki", "setting": "CDK2", "result": "1 to 3", "unit": "nM"}]}
{"smiles": "COc1cccnc1-c1nc2cc(OC(F)(F)F)ccc2[nH]1", "note": "[AI-10-104]", "values": [{"measurement": "IC50", "setting": "CBFB [1]", "result": 1250, "unit": "nM"}]}
{"smiles": "O=C(NC1CCNCC1)c1n[nH]cc1NC(=O)c1c(Cl)cccc1Cl", "note": "[AT7519, 4-[(2,6-Dichlorobenzoyl)amino]-N-(4-piperidinyl)-1H-pyrazole-3-carboxamide]", "values": [{"measurement": "IC50", "setting": "CDK", "result": "10 to 210", "unit": "nM"}]}
{"smiles": "CCc1sc(N)nc1-c1ccc(OC)cc1", "note": "[CBFB inhibitor, 5-ethyl-4-(4-methoxyphenyl)-2-thiazolamine]", "values": [{"measurement": "IC50, binds CBFbeta and prevents its association with Runx1", "setting": "[2]", "result": 3200, "unit": "nM"}]}
{"smiles": "C[C@@H]1C[C@H]2[C@@H]3CCC4=CC(=O)C=C[C@]4(C)[C@@]3(F)[C@@H](O)C[C@]2(C)[C@@]1(O)C(=O)CO", "note": "[Dexamethasone, (8S,9R,10S,11S,13S,14S,16R,17R)-9-Fluoro-11,17-dihydroxy-17-(2-hydroxyacetyl)-10,13,16-trimethyl-6,7,8,9,10,11,12,13,14,15,16,17-dodecahydro-3H-cyclopenta[a]phenanthren-3-one]", "values": [{"measurement": "IC50", "setting": "GATA3", "result": 10, "unit": "nM"}]}
{"smiles": "CN1CC[C@H](c2c(O)cc(O)c3c(=O)cc(-c4ccccc4Cl)oc23)[C@H](O)C1", "note": "[Flavopiridol, 2-(2-chlorophenyl)-5,7-dihydroxy-8-[(3S,4R)-3-hydroxy-1-methyl-4-piperidinyl]-4-chromenone]", "values": [{"measurement": "IC50", "setting": "CDK", "result": "~40", "unit": "nM"}]}
{"smiles": "NS(=O)(=O)c1ccc(NC2=CC(=O)c3ccccc3C2=O)cc1", "note": "[ML329, 4-((1,4-dioxo-1,4-dihydronaphthalen-2-yl)amino)benzenesulfonamide]", "values": [{"measurement": "IC50", "setting": "MITF", "result": 1200, "unit": "nM"}]}
{"smiles": "O=C1CN=C(c2ccc[nH]2)c2cc(Cl)ccc2N1", "note": "[Ro5-3335, 7-Chloro-1,3-dihydro-5-(1H-pyrrol-2-yl)-2H-1,4-benzodiazepin-2-one]", "values": [{"measurement": "IC50", "setting": "CBFB [3]", "result": 1100, "unit": "nM"}]}
{"smiles": "COc1ccc(C(=O)C[C@]2(O)C(=O)Nc3c(Cl)ccc(Cl)c32)cc1", "note": "[TK-216, 4,7-dichloro-1,3-dihydro-3-hydroxy-3-[2-(4-methoxyphenyl)-2-oxoethyl]-(3R)-2H-indol-2-one]", "values": [{"measurement": "IC50", "setting": "FLI1", "result": 449, "unit": "nM"}]}
